According to patent publication US20070213366A1, “Treatment of Synucleinopathies” (priority 2005, published 2007):
Entries after “also recorded” stand apart in the source; their conditions may differ.

What was measured:
[1] = tested on: UCH-L1; test: Total amount and turnover (pulse-chase) of UCH-L1 in SH-SY5Y cells; format: cell-based
[2] = tested on: UCH-L1; test: 2D electrophoresis and Western blot of membrane-bound and cytosolic UCH-L1 in SH-SY5Y cells; format: cell-based; details: compared to DMSO
Experimental: Membrane fractionation: Cells were harvested by scraping and washed with PBS. Cell pellet was suspended in lysis buffer (50 mM Tris-HCl, 1 mM EDTA) supplemented with protease inhibitor cocktail (Sigma) and homogenized by passing through 26G needles 10 times. Suspension was clarified by spinning at 600 g for 5 minutes. Clarified suspension was ultracentrifuged at 100,000 g for 2 hours and separated into membrane and cytosol. Membrane fraction washed with washing buffer (50 mM Tris-HCl, 1 mM EDTA 1 M NaCl), and pelleted each time with bench-top centrifuge.
2D electrophoresis: For the isolation of total cellular protein, cultured SH-SY5Y cells maintained as described above were rinsed with ice-cold PBS. Cells were lysed in 1 ml dSDS buffer (50 mM Tris-HCl, pH 8.0 0.1% SDS) supplemented with protease inhibitor cocktail. Lysates were boiled for 3 min, and were treated with Dnase and Rnase as described. […]
Western Blotting: Following transfer of SDS gels onto NC membrane, all membranes were blocked with 5% non-fat milk in TBST (50 mM Tris-HCl pH7.4, 150 mM NaCl, 0.1% Tween 20), and incubated with primary antibody overnight with 1% BSA in TBST, washed three times with TBST, and incubated with horseradish peroxidase-conjugated secondary antibody for 1 hour (Promega). Bound antibodies were detected using enhanced chemiluminascence (NEM). […]

[3] = tested on: SH-SY5Y cells overexpressing α-synuclein; test: Viability (Trypan blue, MTT) of SH-SY5Y cells infected by α-synuclein-expressing adenovirus; format: cell-based
Experimental: Viral Infection: Viral infection and MTT assay in SH-SY5Y cells: The viruses were amplified and purified according to the published procedure. SH-SY5Y cells were grown on 100 mm petri-dishes and induced with 100 nM retinoic acid for 3-5 days before the virus infection with M.I.O at 75. Viruses were diluted with DPBS to desired M.I.O. After four hours of incubation, 10 ml growth medium was added. On the second day, cells were splitted into 96-well plates and treated with compounds for next 48 hours. The growth medium in each well was replaced with growth medium with 5 ug/ml MTT. Medium was removed after three hours incubation, and 200 ul isopropyl (0.04N HCl) was added into each well. The signal was read at 570 nm.
Viable cell counting: At stated time poins, SH-SY5Y cells were trypsinized with 100 ul trypsin-EDTA for 1 minute and neutralized with 400 ul growth medium. Cell suspension was made up by mixing 0.2 ml of cells in growth medium, 0.3 ml of HBSS and 0.5 ml of 0.4% Trypan Blue solution. Viable cell numbers were counted by standard cell counting chamber.
Since α-synuclein neurotoxicity is dose-dependent, it follows that accumulation of α-synuclein, caused by UCH-L1 farnesylation, should promote its toxicity. […] These cells express high endogenous levels of UCH-L1. […] The unit of y-axis is 10^5/ml. (F) Cell viability was assessed by the amount of metabolic activity using MTT assay. […]

[4] = tested on: α-synuclein; test: α-synuclein degradation/accumulation assay in COS-7 cells; format: cell-based
Text: Plasmids: C220S cDNA was generated by PCR site-specific mutagenesis. For the PCR, the 5′ primer is uchforw SEQ ID NO: 1 ([…]), and 3′ primer is uchc220s SEQ ID NO:2 (CTAAGA […]). Wt UCH-L1 served as the template. The PCR fragment was inserted into pcDNA vector. For S 18YC220S mutant, S18Y UCH-L1 served as the template in PCR. For the FLAG tagged UCH-L1, the 5′ primer is FLAGuchforw SEQ ID NO: 3 ([…] CGATGGAG), and the 3′ primer is uchrev SEQ ID NO: 4 ([…]). Wt UCH-L1 or C220S served as the template. PCR fragment was purified and inserted into pcDNA vector. For the FLAG tagged UCH-L3, the 5′ primer is L3HindIII SEQ ID NO: 5 (CTAAAGCTTATGGACTAC […]), the 3′primer is L3XhoISAA SEQ ID NO: 6 ([…]). For the UCH-L3 CKAA variant, the 5′ primer is L3 HindIII and the 3′ primer is L3XhoICKAA SEQ ID NO: 7 ([…]). α-synuclein degradation assay: Lipofectamine 2000 was used to transfect COS-7 cells according to the Invitrogen protocol. Transfected cells were cultured at 37° C. for 48 hours before being treated with 35 μM lactacystin or DMSO. After 24 hours of incubation, the cells were lysed with Tris buffer (50 mM Tris, 2% SDS, 0.1% NP-40), and subjected to SDS-PAGE, followed by quantitative Western blotting.
In order to isolate the latter possibility, a mutant form of UCH-L3 was constructed in which the UCH-L1 farnesylation sequence was added to the UCH-L3 C-terminus. […]

[5] = tested on: primary dopaminergic cultures; test: α-synuclein toxicity in primary dopaminergic cultures; format: cell-based
[6] = tested on: α-synuclein; test: Western blot of α-synuclein in SH-SY5Y cells infected with α-synuclein-expressing adenovirus; format: cell-based; details: normalized against actin
Experimental: Western Blotting: Following transfer of SDS gels onto NC membrane, all membranes were blocked with 5% non-fat milk in TBST (50 mM Tris-HCl pH7.4, 150 mM NaCl, 0.1% Tween 20), and incubated with primary antibody overnight with 1% BSA in TBST, washed three times with TBST, and incubated with horseradish peroxidase-conjugated secondary antibody for 1 hour (Promega). Bound antibodies were detected using enhanced chemiluminascence (NEM).
Since α-synuclein neurotoxicity is dose-dependent, it follows that accumulation of α-synuclein, caused by UCH-L1 farnesylation, should promote its toxicity. […] These cells express high endogenous levels of UCH-L1. […] The unit of y-axis is 10^5/ml. (F) Cell viability was assessed by the amount of metabolic activity using MTT assay. […] The effect of FTI-277 on the α-synuclein accumulation in the SH-SY5Y infected with α-synuclein-expressing adenovirus were analyzed by Western blotting (B) and the amount of α-synuclein (C) was quantified using NIH Image program and normalized against the amount of actin.

[7] = tested on: farnesylated UCH-L1; test: Quantitative Western blot of farnesylated UCH-L1 in cortex membrane fraction of α-synuclein transgenic mice; format: in vivo
Experimental: (§1) Farnesyl transferase inhibitors Zarnestra and OSI-754 were administered to mice of the α-synuclein transgenic line described in Masliah et al. (Masliah et al. “Dopaminergic loss and inclusion body formation in alphα-synuclein mice: implications for neurodegenerative disorders” Science 287(5456): 1265-69, 2000; incorporated herein by reference). Animals from this line have α-synuclein neuronal inclusions in the cortex, hippocampus, and the olfactory bulb (Masliah et al. “Dopaminergic loss and inclusion body formation in alphα-synuclein mice: implications for neurodegenerative disorders” Science 287(5456): 1265-69, 2000; incorporated herein by reference). Transgenic mice were orally administered either FTI in 20% cyclodextrin solution or the same volume of vehicle alone twice a day for 30 or 90 days. […]
(§2) Treatment with 35 mg/kg Zarnestra twice a day for 30 days decreased levels of α-synuclein protein in the cortex and the amount of farnesylated UCH-L1 in the cortex of transgenic mice. Total α-synuclein levels were analyzed by a sandwich ELISA assay similar to one previously described (El-Agnaf et al. “Detection of oligomeric forms of alphα-synuclein protein in human plasma as a potential biomarker for Parkinson's disease” FASEB J. 20(3):419-25, 2006; incorporated herein by reference). […] The amount of UCH-L1 was determined by quantitative Western Blot. […]

[8] = tested on: Lewy body-like inclusions; test: Campbell Switzer silver staining of Lewy body-like inclusions in α-synuclein transgenic mice; format: in vivo; details: 35 mg/kg twice a day for 30 days, vs vehicle
Experimental: (§3) Farnesyl transferase inhibitors Zarnestra and OSI-754 were administered to mice of the α-synuclein transgenic line described in Masliah et al. (Masliah et al. “Dopaminergic loss and inclusion body formation in alphα-synuclein mice: implications for neurodegenerative disorders” Science 287(5456): 1265-69, 2000; incorporated herein by reference). Animals from this line have α-synuclein neuronal inclusions in the cortex, hippocampus, and the olfactory bulb (Masliah et al. “Dopaminergic loss and inclusion body formation in alphα-synuclein mice: implications for neurodegenerative disorders” Science 287(5456): 1265-69, 2000; incorporated herein by reference). Transgenic mice were orally administered either FTI in 20% cyclodextrin solution or the same volume of vehicle alone twice a day for 30 or 90 days. In some cases, non-transgenic mice also received vehicle twice a day for 30 to 90 days. At the end of treatment, mice were sacrificed, and the brains removed and hemisected. […]
(§4) Formation of α-synuclein inclusions in the cortex and hippocampus was probed by immunostaining with an antibody for full-length human α-synuclein. Cells positive for human α-synuclein were quantified. […] These regions were also analyzed for ubiquitin-immunoreactive inclusions and by the Campbell Switzer method of silver staining. […]

[9] = tested on: human α-synuclein; test: Immunostaining of α-synuclein inclusions in cortex and hippocampus of α-synuclein transgenic mice; format: in vivo
Experimental: Farnesyl transferase inhibitors Zarnestra and OSI-754 were administered to mice of the α-synuclein transgenic line described in Masliah et al. (Masliah et al. “Dopaminergic loss and inclusion body formation in alphα-synuclein mice: implications for neurodegenerative disorders” Science 287(5456): 1265-69, 2000; incorporated herein by reference). Animals from this line have α-synuclein neuronal inclusions in the cortex, hippocampus, and the olfactory bulb (Masliah et al. “Dopaminergic loss and inclusion body formation in alphα-synuclein mice: implications for neurodegenerative disorders” Science 287(5456): 1265-69, 2000; incorporated herein by reference). Transgenic mice were orally administered either FTI in 20% cyclodextrin solution or the same volume of vehicle alone twice a day for 30 or 90 days. In some cases, non-transgenic mice also received vehicle twice a day for 30 to 90 days. At the end of treatment, mice were sacrificed, and the brains removed and hemisected. One hemisphere of each was fixed in 4% paraformaldehyde/PBS (pH 7.4), cryoperserved, then sectioned for histology. The other hemisphere was subdivided into four brain regions, including the cortex and hippocampus, that were homogenized and processed into cytoplasmic and membrane fractions.
Formation of α-synuclein inclusions in the cortex and hippocampus was probed by immunostaining with an antibody for full-length human α-synuclein. Cells positive for human α-synuclein were quantified. […] These regions were also analyzed for ubiquitin-immunoreactive inclusions and by the Campbell Switzer method of silver staining. Ubiquitin is known to be a constituent of Lewy Bodies and in the α-synculein inclusions found in the transgenic mouse line used in the study (Masliah et al. “Dopaminergic loss and inclusion body formation in alphα-synuclein mice: implications for neurodegenerative disorders” Science 287(5456): 1265-69, 2000; incorporated herein by reference). […] Campbell-Switzer staining is a general marker of Lewy Body type inclusions (Uchihara et al. “Silver stainings distinguish Lewy bodies and glial cytoplasmic inclusions: comparison between Gallyas-Braak and Campbell-Switzer methods” Acta Neuropathol. (Berl) 110(3):255-60, 2005; incorporated herein by reference).
Formation of α-synuclein inclusions in the cortex and hippocampus was probed by immunostaining with an antibody for full-length human α-synuclein. Cells positive for human α-synuclein were quantified.

[10] = tested on: ubiquitin-immunoreactive inclusions; test: Ubiquitin immunohistochemistry in α-synuclein transgenic mice; format: in vivo; details: 35 mg/kg twice a day for 30 days, vs vehicle
Experimental: as §3, §4

[11] = tested on: α-synuclein; test: Sandwich ELISA of total α-synuclein in cortex fractions of α-synuclein transgenic mice; format: in vivo; details: 45 mg/kg twice a day for 30 days, vs vehicle-treated transgenic mice
Experimental: as §1, §2

[12] = 35 mg/kg twice a day for 30 days, vs vehicle
[13] = 9 mg/kg twice a day for 90 days, vs vehicle
[14] = 45 mg/kg twice a day for 90 days, vs vehicle

In the case of `COC(=O)[C@H](CCSC)NC(=O)c1ccc(NC[C@@H](N)CS)cc1-c1ccccc1` [FTI-277], the “total amount of UCH-L1” value [1] was “reduced the total amount of UCH-L1”, the “rate of turnover of UCH-L1” value ([1]; pulse-chase experiment not shown) was “increased its rate of turnover” and the “amount of cytosolic UCH-L1” value [2] was “without affecting”. For the same compound, the “amount of membrane bound UCH-L1” value [2] was “significant decrease; also recorded: decreased the amount of the membrane-associated species; also recorded: reducing the amount of membrane-associated protein”, the “α-synuclein toxicity / loss of cells” value ([3]; SH-SY5Y cells overexpressing α-synuclein via adenovirus, compared to DMSO) was “inhibits synuclein toxicity; also recorded: rescued α-synuclein toxicity; also recorded: significantly decreased loss of cells” and the “neuroprotective effect of FTI-277 on co-administration of the small-molecule UCH-L1 inhibitor” value ([3]; SH-SY5Y cells overexpressing α-synuclein, not shown) was “eliminated”. For the same compound, the synuclein level ([4]; COS-7 cells) was “lowers synuclein level”, the α-synuclein toxicity [5] was “inhibit α-synuclein toxicity” and the “amount of α-synuclein” value [6] was “reducing the amount of α-synuclein accumulation; also recorded: reduced the amount of α-synuclein”.
With `CC(=O)N[C@@H](CSC(=O)[C@]1([C@@H](O)C(C)C)NC(=O)[C@H](C)[C@@H]1O)C(=O)O` [lactacystin] the “accumulation of α-synuclein” value ([4]; transfected COS-7 cells, 16 kDa α-synuclein normalized against actin, sets the scale) was 100%.
With `Cn1cncc1[C@@](N)(c1ccc(Cl)cc1)c1ccc2c(c1)c(-c1cccc(Cl)c1)cc(=O)n2C` [Zarnestra] the “amount of farnesylated UCH-L1 in the cortex” value ([7]; 35 mg/kg twice a day for 30 days, membrane fraction) was “decreased the amount of farnesylated UCH-L1 in transgenic mice to levels similar to non-transgenic mice”, the Campbell-Switzer stained inclusions [8] was “fewer inclusions” and the “α-synuclein-positive cells per mm, cortex” value [9, 12] was “significantly fewer”. For the same compound, the “α-synuclein-positive cells per mm, hippocampus” value [9, 12] was “significantly fewer”, the inclusions vs vehicle ([9]; transgenic mice, 35 mg/kg orally twice a day for 30 days) was “fewer inclusions” and the ubiquitin-immunoreactive inclusions [10] was “fewer ubiquitin-immuoreactive inclusions”.
`C#Cc1cccc(-c2cc(=O)n(C)c3ccc(C(O)(c4ccc(Cl)cc4)c4cncn4C)cc23)c1` (stereo not shown) [OSI-754] was tested, and the “amount of farnesylated UCH-L1 in the cortex” value ([7]; 45 mg/kg twice a day for 30 days, normalized to actin) was “decreased the amount of farnesylated UCH-L1”, the “α-synuclein protein levels, cortex cytoplasmic fraction” value [11] was “lower α-synuclein protein levels” and the “α-synuclein protein levels, cortex membrane fraction” value [11] was “lower α-synuclein protein levels”. For the same compound, the inclusions vs vehicle ([9]; 9 mg/kg twice a day for 90 days) was “fewer inclusions”, the “α-synuclein-positive cells per mm^2, cortex” value [9, 13] was “fewer α-synuclein-positive cells” and the “α-synuclein-positive cells per mm^2, hippocampus” value [9, 13] was “fewer α-synuclein-positive cells”. The inclusions vs vehicle ([9]; 45 mg/kg twice a day for 90 days) was “fewer inclusions”, the “α-synuclein-positive cells per mm^2, cortex” value [9, 14] was “fewer α-synuclein-positive cells” and the “α-synuclein-positive cells per mm^2, hippocampus” value [9, 14] was “fewer α-synuclein-positive cells”.
